Data on three compounds can be found in patent publication EP4302767A1, “OPHTHALMIC COMPOSITION COMPRISING ERIOCITRIN” (Skeye Pharma GmbH, priority 2022, dated 2024).

Data set [1] deals with Human corneal epithelial cells (hCEC). The experiment in a line: BrdU cell proliferation ELISA. It is filed as cell-based. The procedure: (§1) Proliferation of hCEC was determined using a 5-bromo-2'-deoxyuridine (BrdU) ELISA in accordance with the manufacturers' recommendations (Merck KGaA, Darmstadt, Germany). In brief, approximately 7,000 cells were seeded onto a 96-well cell culture plate and incubated for 24h to achieve complete adherence of the cells. After 24 hours of incubation with 100 µl of corneal epithelial cell growth medium without its' supplement mix, hCECs were treated with eriocitrin and/or SCH772984 (Selleckchem, Houston, TX, USA), an inhibitor of ERK1/2 phosphorylation, both dissolved in DMSO. Following another 24 hours of incubation with BrdU labeling solution, cells were fixed and incubated with anti-BrdU antibodies according to the manufacturer's recommendations. BrdU incorporation into the DNA of hCECs was quantified by absorbance measurement at 450 nm.

Data set [2] is described as follows: WST-1 cell viability assay. It is filed as cell-based, Human. The note with it: human, corneal epithelial cells, 0.5 µM, DMSO control = 100 ± 12%, mean ± SD. The procedure: (§2) Human corneal epithelial cells (hCEC; SCCE016; Merck Millipore, Burlington, MA, USA) were cultured in corneal epithelial cell growth medium with supplement mix (LGC Standards, Teddington, United Kingdom). Approximately 10,000 hCECs were seeded onto each well of a 96-well cell-culture dishes (NUNC, Langenselbold, Germany). After 24 hours of incubation with 100 µl of corneal epithelial cell growth medium without its' supplement mix (LGC Standards, Teddington, United Kingdom), hCECs were treated with different concentrations of eriocitrin (EC; Selleckchem, Houston, TX, USA) dissolved in dimethyl sulfoxide (DMSO; Carl Roth AG, Karlsruhe, Germany). Control groups were treated with DMSO only. Following another 72 hours of incubation, the cells were incubated with the water-soluble tetrazolium salt (WST-1; Hoffmann-La Roche AG, Basel, Switzerland) solution for 30 minutes. Substrate turnover was measured with an ELISA reader at 450 nm (Spectramax 190; Molecular Devices, Sunnyvale, CA, USA) and a reference at 690 nm.

The subject of data set [3] is Human corneal epithelial cells (hCEC). The experiment in a line: WST-1 cell viability assay. The class given is cell-based. The note with it: any of the concentrations tested, 72 hours, compared to DMSO control; Fig. 1A. The procedure:
as §2

Data set [4] has the same test system. Description: Cell scratch (wound healing / migration) assay in vitro. The class given is cell-based. The settings on record: 10 µM, Fig. 2. The procedure: To analyze hCEC migration in vitro, cells were cultured in corneal epithelial cell growth medium with supplement mix until confluence of the cells of a 6-well cell culture plate. Following an incubation period of 24 hours in cell culture medium without supplements, 5 linear scratches were performed in each well using a 200 µl pipette tip (Eppendorf AG, Hamburg, Germany). The hCECs were then incubated prospectively under treatment with eriocitrin or DMSO as a control for up to 48 hours. Reference images were acquired at the beginning of the incubation period using the phase contrast mode on an Axio Observer 7 (Carl Zeiss AG, Jena, Germany). Every 24 hours, follow-up images of different scratch sections were acquired. The size of the wound area was analyzed using a semi-automated analysis tool in ImageJ 1.53a (National Institute of Health, Bethesda, MD, USA).

Data set [5] shares this test system. The experiment in a line: Oxidative stress model (H2O2) with BrdU proliferation assay. The settings on record: 24 h, Fig. 3, read-out: cell proliferation. It is filed as cell-based. The method, then:
as §1
To determine potential anti-oxidative effects of eriocitrin, hCECs were incubated and treated analogous to the above-mentioned BrdU ELISA with minor modifications. To induce oxidative stress, hydrogen peroxide (H2O2) in a concentration of 100 µM was added to the treatment groups and an additional H2O2-only group was tested. Following another incubation of the hCECs for 24 hours, the BrdU assay was further performed according to the description above.

In the next data set the test system is ERK1/2. Description: Western blot of ERK1/2 phosphorylation in corneal epithelial cells. The class given is cell-based. The settings on record: Homo sapiens, Corneal epithelial cell, 1 hour, compared to DMSO-only control, Fig. 4, read-out: pERK1/2 protein expression. The procedure: To analyze whether eriocitrin activates the extracellular signal-regulated kinase-1 and -2 (ERK1/2), human corneal epithelial cells were treated with 10 µM eriocitrin for 1 hour. Corneal proteins were isolated in radioimmunoprecipitation assay (RIPA) buffer. Protein concentration was measured with a bicinchoninic acid (BCA) assay according to the manufacturer's instructions (Thermo Fisher Scientific, Waltham, MA, USA). Up to 25 µg of total proteins were subjected to 8% SDS-PAGE. Following gel electrophoresis proteins were transferred onto a polyvinylidine fluoride (PVDF) membrane (Roche Holding, Basel, Switzerland) by semidry blotting. After blocking with 3% low fat milk in PBS-Tween (PBS-T) for one hour, membranes were incubated overnight with a rabbit-anti-pERK1/2 (1:1000; Cell Signaling Technology, Danvers, MA, USA) in PBS-T with 0.3% low fat milk. Alkaliphosphatase-conjugated mouse-anti-rabbit antibodies (1:1000, Jackson Immunoresearch Europe, UK) were used as secondary antibodies. Antibody hybridization was visualized using the CDP-Star substrate (Thermo Fisher) and documented with the Western Blot Reader iBright CL 1000 (Thermo Fisher). As a loading control, AP-conjugated anti-alpha-tubulin antibodies were used (1:1000, Merck). The densitometry of Western blot analyses was performed with the iBright Image software v.1.4.0 software (Thermo Fisher).

The conditions of data set [6]: 80°C for 30 min, pH 7; cited from earlier work.
For data set [7] the following is noted: 'it is believed'; basis not stated; cited from earlier work.

Take `O=C(Nc1ccc2[nH]nc(-c3ccncc3)c2c1)[C@@H]1CCN(CC(=O)N2CCN(c3ccc(-c4ncccn4)cc3)CC2)C1` [SCH772984, reference compound]: the “effect on eriocitrin-enhanced proliferation of corneal epithelial cells” value in data set [1] (100 nM added to 10 µM eriocitrin, 24 hours, Fig. 5) is reported as “completely blocked”.

On to `C[C@@H]1O[C@@H](OC[C@H]2O[C@@H](Oc3cc(O)c4c(c3)O[C@H](c3ccc(O)c(O)c3)CC4=O)[C@H](O)[C@@H](O)[C@@H]2O)[C@H](O)[C@H](O)[C@H]1O` [eriocitrin, (2S)-3',4',5-trihydroxy-7-[α-L-rhamnopyranosyl-(1→6)-β-D-glucopyranosyloxy]flavan-4-one], for which, in data set [2], the viability at 72 h, 0.5 µM was found to be 110 ± 14%. In addition, the “toxic effects on corneal epithelial cell viability” value in data set [3] is on record as “did not show any toxic effects”. Besides, the proliferation was 104 ± 9% in data set [1] (10 µM eriocitrin plus 100 nM SCH772984, 24 hours, Fig. 5) and 129 ± 11% in data set [1] (10 µM, 24 hours, compared to DMSO treated controls, Fig. 5). In addition, in data set [1] (Homo sapiens, HCEC, 0.5 µM, 24 hours, DMSO control = 100 ± 17%, Fig. 1B), the activity at 0.5 µM was 118 ± 39%. Besides, the activity at 1 µM in data set [1] (Homo sapiens, HCEC, 1 µM, 24 hours, DMSO control = 100 ± 17%, Fig. 1B) is 126 ± 33%. The activity at 2.5 µM in data set [1] (Homo sapiens, HCEC, 2.5 µM, 24 hours, DMSO control = 100 ± 17%, Fig. 1B) amounted to 127 ± 29%. Further, the activity at 5 µM in data set [1] (Homo sapiens, HCEC, 5 µM, 24 hours, DMSO control = 100 ± 17%, Fig. 1B) was found to be 143 ± 36%; in data set [5] (5 µM added to 100 µM H2O2, 24 hours, H2O2 control 81 ± 12%), 113 ± 9%; in data set [5] (5 µM, 24 hours, without H2O2, compared to DMSO control), 117 ± 8%. The activity at 10 µM is 162 ± 49% in data set [1] (Homo sapiens, HCEC, 10 µM, 24 hours, DMSO control = 100 ± 17%, Fig. 1B); 115 ± 18% in data set [5] (10 µM added to 100 µM H2O2, 24 hours, H2O2 control 81 ± 12%); 125 ± 18% in data set [5] (10 µM, 24 hours, without H2O2, compared to DMSO control). For the same compound, the “scratched hCEC area, difference to DMSO-only control” value in data set [4] (24 hours of incubation, p > 0.9999) is “slight difference”. Further, the remaining wound area in data set [4] (48 hours of incubation, control 71.9 ± 7.7%) worked out at 64.5 ± 7.8%. Besides, the fold induction at 10 µM in the data set with ERK1/2 is 1.8 ± 0.9. Besides, the “eriocitrin molecules remain intact” value in data set [6] was 60%.

On to `COc1cc(O)c(CC=C(C)C)c(O)c1C(=O)/C=C/c1ccc(O)cc1` [xanthohumol, 1-[2,4-Dihydroxy-6-methoxy-3-(3-methyl-but-2-enyl)-phenyl]-3-(4-hydroxyphenyl)-propenon], for which the first pka entry in data set [7] is on record as “about 7”.
